Experimental data published in patent US8053470B2, “Process for the preparation of polynuclear ferric hydroxide-saccaride complexes” (Chongqing Pharmaceutical Research Institute Co., Ltd., priority 2005, dated 2011).

Assay: Isoelectric point of the iron-saccharide complex: pH at which its aqueous solution turns turbid on drop-wise addition of diluted hydrochloric acid (USP 27 iron sucrose injection method)
Format: physicochemical
Conditions: examples described in text; Example 1 measured by method of 27th version of USP
Source text: The term “isoelectric point” herein refers to a pH value at which the aqueous solution of iron-saccharide complexes turns turbid during the drop-wise addition of a diluted hydrochloric acid solution.

Substance	isoelectric point of the final product
Polynuclear Ferric Hydroxide-fructose Complex [Example 11]	5.2
Polynuclear Ferric Hydroxide-sucrose Complex [Example 1]	4.4
